Data set [1] relates to rats. Nature of the data set: Bioavailability studies on rats (liver and kidney functions, blood picture, lipid profile). The note with it: for Lipid profile: all groups. Format: in vivo. From the text:
The study on rats included five groups, group 1 control, 2 receiving cu, group.2 pyrazinic, group 3 complex with large dose, & group 5 receiving complex with small dose.

Data set [2] deals with muscle weakness (muscle dystrophies, post stroke weakness). Nature of the data set: Clinical trials for treatment of weakness of muscles. The data set is classed as in vivo, human. From the text:
The complex used in treatment of muscle weakness for different underlying causes (muscle dystrophies post stroke weakness). […] When the patient reaches the optimum dose, onset of improvement in muscle power is observed within hours of drug intake.

Data set [3] has as its system stem cells, CD4 and CD8 cells. Kind of data set: In vivo stem cell, CD4 and CD8 counts before and during medication. To be noted: before and at regular intervals of medication. From the text:
We hypothesized that the drug may have a role in stimulating the stem cells present in the various organs to differentiate. […] In vivo we measured the stem cell count together with CD8 and CD4 cells before, and at regular intervals of medication.

Data set [4] can be described thus: Stability of the solid complex. Format: physicochemical.
For data set [5], the system named is fatigue. Kind of data set: Clinical trials for treatment of fatigue in humans. The data set is classed as in vivo.
Data set [6] can be described thus: Solubility of the complex in solvents. Format: physicochemical. From the text:
Solubility: the complex is insoluble in non polar solvents, e.g. benzene, carbon tetrachloride, etc., and insoluble in polar solvents: water, methanol, ethanol, acetone, but soluble in these solvents upon heating in inert atmosphere, to prevent oxidation.

Data set [7] concerns male infertility (sperm count, motility). Kind of data set: Male infertility study, 20 patients. Format: in vivo, human.
Data set [8] deals with rats. Nature of the data set: Toxicity of the complex (LD50, mortality within 24 hrs). The data set is classed as in vivo. As for the experimental part: Seventy two rats (250+/−2.0 g b.wt) were randomly located into 12 groups of 6 rats each
Mortality in each group were recorded within 24 hrs. The LD50 was calculated according to Behecens and Karbere (1970)

Data set [9] concerns dilated Cardiomyopathy. Nature of the data set: Clinical trials in cardiomyopathy. Format: in vivo, human. To be noted: clinically and in ECHO cardiographic measurements. From the text: Improvement is shown both clinically and in the ECHO cardiographic measurements.
The mark [10] stands for this setting: complex at large and small dose.

With `O=C(O)c1cnccn1` [pyrazinic, pyrazinic acid, reference compound], the Lipid profile entry in data set [1] is given as “didn't show significant difference”. Besides, the “Liver and kidney functions versus control group” value in data set [1] (setting [10]) is on record as “no significant difference”.

As for “[CuCI (pyrazinic acid) 2]. 2H2O [complex]”, the “Clinical improvement in DMS patients” value in data set [2] (affected by age, weight and degree of dystrophy) is recorded as “dose dependant”. Moreover, in [2] (at optimum dose, after drug intake), the “Onset of improvement in muscle power” value is on record as “within hours”. Further, in data set [3], the CD4/CD8 result is “no disturbance”; the “CD4 and CD8 number” value is on record as “increase”; the Stem cell count result is listed as “significant decrease”. Further, the Stability entry in data set [4] is recorded as “sufficiently stable when well-dried”. In [5], the “Agonizing fatigue in Parkinsonism, myositis, disseminated sclerosis” value was “improves markedly”; the “Effect in all types of fatigue” value is “relieved the muscle pain, increased the physical activity and productivity”. Further, the Lipid profile result in [1] was “didn't show significant difference”. Moreover, the “Liver and kidney functions versus control group” value in data set [1] (setting [10]) was “no significant difference”. Further, in data set [1] (complex at large and small dose, not exceeding the normal range), the “Lymphocytic count (complete blood picture)” value is listed as “increase of lymphocytic count”. Moreover, the “Solubility in non polar solvents” value in [6] (e.g. benzene, carbon tetrachloride) is “insoluble”. For the same compound, in [6] (water, methanol, ethanol, acetone), the “Solubility in polar solvents” value is “insoluble”. In data set [6] (water, methanol, ethanol, acetone, heating in inert atmosphere), the “Solubility in polar solvents upon heating” value was “soluble”. In addition, the Sperm motility entry in [7] (all cases) is “significant improvement”. In addition, in data set [7] (among the seven responding azospermic patients), the “Healthy babies, azospermic patients” value was “two of them got healthy babies”. Besides, in data set [7] (oligospermia cases), the “Healthy babies, oligospermia” value is given as “four cases got also healthy babies”. Moreover, the “Sperm count in azospermic patients” value in data set [7] (seven out of nine patients, within 6 weeks of treatment) is 1.5-3 millions/hpf. For the same compound, the “Sperm count in oligospermia” value in data set [7] (within 1 month of treatment) is listed as “doubling of the count”. Further, the “LD50 (intrapperitoneally)” value in data set [8] (intraperitoneal) came out at 128 mg/kg. Further, the “LD50 (oral)” value in [8] (oral) is given as 1104.17 mg/kg. In addition, in data set [9], the “Cases improved, dilated cardiomyopathy due to other causes” value is reported as 80% and the “Improvement of dilated cardiomyopathy secondary to Duchenne muscle dystrophy” value is on record as “improved all cases”.

These data come from US20090105207A1, “Copper (1) Complex” (priority 2006, published 2009).
